Key:
human JAK1 = target: T1, human JAK1 (Homo sapiens, UniProt P23458); experiment: JAK1 inhibition assay (polyGT substrate / Ulight-JAK1 peptide); type: biochemical; conditions: recombinant human JAK1 catalytic domain; polyGT or Ulight-JAK1 peptide assay
T1 construct: catalytic domain, amino acids 866-1154; catalog number PV4774; purchased Invitrogen PV4774
In short: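 Two formats. PolyGT radiometric: 45 min at 30 °C, stopped with phosphoric acid, counted as cpm. Ulight-JAK1 peptide: 60 min at room temperature, stopped with Eu-anti-phosphotyrosine/EDTA, read as RFU. Percent inhibition normalised to vehicle and 10 μM staurosporine.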

human JAK2 = target: T2, human JAK2 (Homo sapiens, UniProt O60674); experiment: JAK2 inhibition assay (polyGT substrate / Ulight-JAK1 peptide); type: biochemical; conditions: recombinant human JAK2 catalytic domain; polyGT or Ulight-JAK1 peptide assay
T2 construct: catalytic domain (amino acids 808-1132; catalog number PV4210); GST; purchased Invitrogen PV4210
In short: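 Radiometric: 0.025 mU JAK2 with 2.5 μg polyGT, 1 μM ATP plus ^33P-ATP in MOPS pH 7.5 buffer, 1% DMSO, 90 min at 30° C.; filter counting. Alternative TR-FRET format with Ulight-JAK1 peptide, 60 min at room temperature, Eu-anti-phosphotyrosine detection.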

human JAK3 = target: T3, human JAK3 (Homo sapiens, UniProt P52333); experiment: JAK3 inhibition assay; type: biochemical; conditions: recombinant human JAK3 catalytic domain; polyGT substrate
T3 construct: catalytic domain (amino acids 781-1124; catalog number PV3855); purchased Invitrogen PV3855
In short: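 Radiometric kinase assay: 0.5 ng JAK3 with 2.5 μg polyGT in Tris pH 7.5/MgCl2 buffer, 1 μM ATP plus 0.25 μCi 33P-γ-ATP, 1% DMSO, 45 min at 30 °C, stopped with phosphoric acid.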

human TYK2 = target: T4, human TYK2 (Homo sapiens, UniProt P29597); experiment: TYK2 inhibition assay; type: biochemical; conditions: recombinant human TYK2 catalytic domain, polyGT substrate
T4 construct: catalytic domain (amino acids 871-1187; catalog number 08-147); purchased Carna Biosciences 08-147
T4 sequence (P29597 871-1187): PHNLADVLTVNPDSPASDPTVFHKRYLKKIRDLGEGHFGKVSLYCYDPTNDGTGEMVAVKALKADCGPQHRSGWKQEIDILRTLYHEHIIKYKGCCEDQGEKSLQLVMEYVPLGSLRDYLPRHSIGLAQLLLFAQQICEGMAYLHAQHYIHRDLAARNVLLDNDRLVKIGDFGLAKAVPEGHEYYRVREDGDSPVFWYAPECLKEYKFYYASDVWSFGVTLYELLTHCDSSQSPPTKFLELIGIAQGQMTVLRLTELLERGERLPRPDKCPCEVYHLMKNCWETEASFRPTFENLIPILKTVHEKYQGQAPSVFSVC
In short: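 Radiometric kinase reaction run 90 min at 30 °C, stopped with phosphoric acid, washed and scintillation-counted.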

CTLL-2 cell line = experiment: CTLL2 viability assay; type: cell-based; conditions: Mus musculus, IL-2 dependent CTLL2 viability, 24 h, ATP-lite
Excerpt: The protocol describes the methods to analyse the activity of compounds on their ability to sustain the IL2-dependent viability of CTLL2.
Final DMSO concentration was 0.1%.

T2 sequence (O60674 808-1132): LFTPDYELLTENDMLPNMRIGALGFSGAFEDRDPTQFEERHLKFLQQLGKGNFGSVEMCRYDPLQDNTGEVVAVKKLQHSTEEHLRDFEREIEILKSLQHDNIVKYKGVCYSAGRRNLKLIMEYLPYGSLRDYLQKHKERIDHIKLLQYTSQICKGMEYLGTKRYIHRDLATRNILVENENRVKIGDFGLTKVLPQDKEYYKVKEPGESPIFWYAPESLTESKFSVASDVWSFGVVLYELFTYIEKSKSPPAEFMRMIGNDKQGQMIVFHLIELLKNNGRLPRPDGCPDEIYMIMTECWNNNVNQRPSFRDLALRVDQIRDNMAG
T1 sequence (P23458 866-1154): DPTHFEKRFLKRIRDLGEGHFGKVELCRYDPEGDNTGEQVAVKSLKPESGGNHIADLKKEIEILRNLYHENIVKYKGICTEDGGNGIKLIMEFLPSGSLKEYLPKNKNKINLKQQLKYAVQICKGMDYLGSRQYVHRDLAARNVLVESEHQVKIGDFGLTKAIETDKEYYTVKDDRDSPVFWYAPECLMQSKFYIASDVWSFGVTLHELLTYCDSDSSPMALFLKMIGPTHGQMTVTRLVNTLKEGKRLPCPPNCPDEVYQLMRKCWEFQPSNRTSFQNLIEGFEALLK
T3 sequence (P52333 781-1124): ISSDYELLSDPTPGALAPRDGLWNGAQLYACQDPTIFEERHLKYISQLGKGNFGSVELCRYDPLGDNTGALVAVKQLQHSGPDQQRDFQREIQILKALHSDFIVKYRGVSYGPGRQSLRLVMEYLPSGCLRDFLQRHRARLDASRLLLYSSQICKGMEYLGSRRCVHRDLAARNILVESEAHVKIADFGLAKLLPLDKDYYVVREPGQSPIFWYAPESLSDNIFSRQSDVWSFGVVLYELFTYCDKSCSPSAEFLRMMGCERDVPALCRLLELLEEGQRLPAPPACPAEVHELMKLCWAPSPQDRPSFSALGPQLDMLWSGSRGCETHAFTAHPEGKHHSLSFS

Row | IC50 (human JAK1) [nM] | IC50 (human JAK2) [nM] | IC50 (human JAK3) [nM] | IC50 (human TYK2) [nM] | SMILES | IC50 (CTLL-2 cell line) [nM]
1 | 0.01 to 100 | 0.01 to 100 | 0.01 to 100 | 0.01 to 100 | CCc1cc(CNS(N)(=O)=O)ccc1N(C)c1cc2c(cn1)ncn2C [Compound 423, N-{3-Ethyl-4-[methyl-(1-methyl-1H-imidazo[4,5-c]pyridin-6-yl)-amino]-benzyl}-aminosulfonamide] | > 1000
2 | 0.01 to 100 | 0.01 to 100 | 101 to 500 | 101 to 500 | CCc1cc(CNS(=O)(=O)N2CC(F)(F)C2)ccc1N(C)c1cc2c(cn1)ncn2C [Compound 424, 3,3-Difluoro-azetidine-1-sulfonic acid 3-ethyl-4-[methyl-(1-methyl-1H-imidazo[4,5-c]pyridin-6-yl)-amino]-benzylamide] | > 1000
3 | 0.01 to 100 | 0.01 to 100 | 101 to 500 | 101 to 500 | CCc1cc(CNS(=O)(=O)N2CCC(F)(F)C2)ccc1N(C)c1cc2c(cn1)ncn2C [Compound 425, 3,3-Difluoro-pyrrolidine-1-sulfonic acid 3-ethyl-4-[methyl-(1-methyl-1H-imidazo[4,5-c]pyridin-6-yl)-amino]-benzylamide] | > 1000
4 | 0.01 to 100 | 0.01 to 100 | 101 to 500 | 101 to 500 | CCc1cc(CNS(=O)(=O)N2CCOCC2)ccc1N(C)c1cc2c(cn1)ncn2C [Compound 426, Morpholine-4-sulfonic acid 3-ethyl-4-[methyl-(1-methyl-1H-imidazo[4,5-c]pyridin-6-yl)-amino]-benzylamide] | > 1000
5 | 0.01 to 100 | 101 to 500 | > 1000 | 101 to 500 | CCc1cc(C2CCCCC2)ncc1N(C)c1cc2c(cn1)ncn2C [Compound 432, (6-Cyclohexyl-4-ethyl-pyridin-3-yl)-methyl-(1-methyl-1H-imidazo[4,5-c]pyridin-6-yl)-amine] | > 1000
6 | 0.01 to 100 | 0.01 to 100 | 101 to 500 | 101 to 500 | CCc1cc(C2CCCC2)ncc1N(C)c1cc2c(cn1)ncn2C [Compound 433, (6-Cyclopentyl-4-ethyl-pyridin-3-yl)-methyl-(1-methyl-1H-imidazo[4,5-c]pyridin-6-yl)-amine] | > 1000
7 | 0.01 to 100 | 101 to 500 | > 1000 | 101 to 500 | CCc1cc(C2CCC2)ncc1N(C)c1cc2c(cn1)ncn2C [Compound 434, (6-Cyclobutyl-4-ethyl-pyridin-3-yl)-methyl-(1-methyl-1H-imidazo[4,5-c]pyridin-6-yl)-amine] | > 1000
8 | 0.01 to 100 | 0.01 to 100 | 101 to 500 | 0.01 to 100 | CCc1cc(C(C#N)N2CCC(C#N)CC2)ccc1N(C)c1cc2c(cn1)ncn2C (stereo not drawn) [Compound 435, 1-(Cyano-{3-ethyl-4-[methyl-(1-methyl-1H-imidazo[4,5-c]pyridin-6-yl)-amino]-phenyl}-methyl)-piperidine-4-carbonitrile] | > 1000
9 | 0.01 to 100 | 0.01 to 100 | 101 to 500 | 0.01 to 100 | CCc1cc(C(C#N)N2CC(NC(=O)OC(C)(C)C)C2)ccc1N(C)c1cc2c(cn1)ncn2C (stereo not drawn) [Compound 436, [1-(Cyano-{3-ethyl-4-[methyl-(1-methyl-1H-imidazo[4,5-c]pyridin-6-yl)-amino]-phenyl}-methyl)-azetidin-3-yl]-carbamic acid tert-butyl ester] | > 1000
10 | 0.01 to 100 | 0.01 to 100 | 101 to 500 | 0.01 to 100 | CCc1cc(C(C#N)N2CCC(CO)CC2)ccc1N(C)c1cc2c(cn1)ncn2C (stereo not drawn) [Compound 437, {3-Ethyl-4-[methyl-(1-methyl-1H-imidazo[4,5-c]pyridin-6-yl)-amino]-phenyl}-(4-hydroxymethyl-piperidin-1-yl)-acetonitrile] | > 1000
11 | 0.01 to 100 | 0.01 to 100 | 101 to 500 | 0.01 to 100 | CCc1cc(C(C#N)N2CC[C@@H](F)C2)ccc1N(C)c1cc2c(cn1)ncn2C (stereo partly drawn) [Compound 438, {3-Ethyl-4-[methyl-(1-methyl-1H-imidazo[4,5-c]pyridin-6-yl)-amino]-phenyl}-((R)-3-fluoro-pyrrolidin-1-yl)-acetonitrile] | > 1000
12 | 0.01 to 100 | 101 to 500 | 501 to 1000 | 0.01 to 100 | CCc1cc(C(C#N)N2CCC[C@@H]2COC)ccc1N(C)c1cc2c(cn1)ncn2C (stereo partly drawn) [Compound 439, {3-Ethyl-4-[methyl-(1-methyl-1H-imidazo[4,5-c]pyridin-6-yl)-amino]-phenyl}-((R)-2-methoxymethyl-pyrrolidin-1-yl)-acetonitrile] | > 1000
13 | 0.01 to 100 | 0.01 to 100 | 101 to 500 | 0.01 to 100 | CCc1cc(C(C#N)N2CC(F)(F)C2)ccc1N(C)c1cc2c(cn1)ncn2C (stereo not drawn) [Compound 440, (3,3-Difluoro-azetidin-1-yl)-{3-ethyl-4-[methyl-(1-methyl-1H-imidazo[4,5-c]pyridin-6-yl)-amino]-phenyl}-acetonitrile] | > 1000
14 | 0.01 to 100 | 0.01 to 100 | 101 to 500 | 0.01 to 100 | CCc1cc(C(C#N)N2CCC(F)(F)C2)ccc1N(C)c1cc2c(cn1)ncn2C (stereo not drawn) [Compound 441, (3,3-Difluoro-pyrrolidin-1-yl)-{3-ethyl-4-[methyl-(1-methyl-1H-imidazol[4,5-d]pyridin-6-yl)-amino]-phenyl}-acetonitrile] | > 1000
15 | 0.01 to 100 | 0.01 to 100 | 101 to 500 | 0.01 to 100 | CCc1cc(C(C#N)N2CCC(C#N)C2)ccc1N(C)c1cc2c(cn1)ncn2C (stereo not drawn) [Compound 445, 1-(Cyano-{3-ethyl-4-[methyl-(1-methyl-1H-imidazo[4,5-c]pyridin-6-yl)-amino]-phenyl}-methyl)-pyrrolidine-3-carbonitrile] | > 1000
16 | 0.01 to 100 | 0.01 to 100 | 501 to 1000 | 0.01 to 100 | CCc1cc(C(C#N)N2CC(C)(C)C2)ccc1N(C)c1cc2c(cn1)ncn2C (stereo not drawn) [Compound 446, (3,3-Dimethyl-azetidin-1-yl)-{3-ethyl-4-[methyl-(1-methyl-1H-imidazo[4,5-c]pyridin-6-yl)-amino]-phenyl}-acetonitrile] | > 1000
17 | 0.01 to 100 | 0.01 to 100 | 101 to 500 | 0.01 to 100 | CCc1cc(C(C#N)N2CCC(O)CC2)ccc1N(C)c1cc2c(cn1)ncn2C (stereo not drawn) [Compound 447, {3-Ethyl-4-[methyl-(1-methyl-1H-imidazo[4,5-c]pyridin-6-yl)-amino]-phenyl}-(4-hydroxy-piperidin-1-yl)-acetonitrile] | > 1000
18 | 0.01 to 100 | 0.01 to 100 | 101 to 500 | 0.01 to 100 | CCc1cc(C(C#N)N2CC[C@@H](OC)C2)ccc1N(C)c1cc2c(cn1)ncn2C (stereo partly drawn) [Compound 448, {3-Ethyl-4-[methyl-(1-methyl-1H-imidazo[4,5-c]pyridin-6-yl)-amino]-phenyl}-((R)-3-methoxy-pyrrolidin-1-yl)-acetonitrile] | > 1000
